These results are taken from US20240226034A1, “Use of Terpenoids and Salicylates as Anesthetics and Analgesics” (THE REGENTS OF THE UNIVERSITY OF CALIFORNIA, priority 2021, published 2024).

Usually IC50 stands for the concentration needed to halve the response being measured.

The conditions of data set [1]: cited from earlier work.
Another data set relates to Sprague Dawley rats. Briefly: Pilot study, single IV bolus injection, righting reflex and tail clamp response. Particulars: for time to return of righting reflex: methyl salicylate: the 2 surviving rats. Here is the method:
Solutions of 10% (v/v) L-carvone or methyl salicylate were prepared sterilely in 20% […]® (Fresenius Kabi, Lake Zurich, IL, USA). Lateral tail vein catheters were placed in twenty-one 69-day-old, male, Sprague Dawley rats weighing 291±17 (mean±SD) grams. Each rat received a single intravenous bolus injection of L-carvone solution (0.2 or 0.4 mL), methyl salicylate solution (0.1, 0.15, 0.2, or 0.4 mL), or a 1:1 mixture of the L-carvone and methyl salicylate solutions over 15 s. Because L-carvone density is 0.9673 g/cm^3 at 25° C., 0.2 mL and 0.4 mL of solution contained 19 mg and 39 mg of L-carvone, respectively (E. E. Royals & S. E. Horne, J. Am. Chem. Soc. 73, (1951): 5850).
Spontaneous motor activity and loss-of-righting reflex was assessed at 5- to 10-s intervals, and nociception response to an alligator clamp applied to the tail was tested if the righting reflex was absent. […] Animals were weighed 24 and 48 h after the study and then euthanized for gross pathology examination.

Data set [2] concerns sciatic nerve axon of frogs. Particulars: frog sciatic nerve axon; read-out: IC50, decrease of compound action potential amplitude; cited from earlier work.
A further data set concerns rat sciatic nerves. As to conditions: read-out: IC50, decrease of compound action potentials; cited from earlier work.
For data set [3], the target named is T1, human benzodiazepine-sensitive α1β2γ2s GABAA receptors (Homo sapiens, UniProt P14867+P18507+P47870).
T1 construct: host or cells: frog oocytes
As to conditions: concentrations up to 0.12 mM; cited from earlier work.

Data set [4] concerns GABAA receptors, rat cerebral cortex cell cultures. As to conditions: 0.75 mM; cited from earlier work.
The mark [5] stands for this setting: 0.2 mL IV bolus of 10% emulsion.

T1 sequence (P14867 28-456): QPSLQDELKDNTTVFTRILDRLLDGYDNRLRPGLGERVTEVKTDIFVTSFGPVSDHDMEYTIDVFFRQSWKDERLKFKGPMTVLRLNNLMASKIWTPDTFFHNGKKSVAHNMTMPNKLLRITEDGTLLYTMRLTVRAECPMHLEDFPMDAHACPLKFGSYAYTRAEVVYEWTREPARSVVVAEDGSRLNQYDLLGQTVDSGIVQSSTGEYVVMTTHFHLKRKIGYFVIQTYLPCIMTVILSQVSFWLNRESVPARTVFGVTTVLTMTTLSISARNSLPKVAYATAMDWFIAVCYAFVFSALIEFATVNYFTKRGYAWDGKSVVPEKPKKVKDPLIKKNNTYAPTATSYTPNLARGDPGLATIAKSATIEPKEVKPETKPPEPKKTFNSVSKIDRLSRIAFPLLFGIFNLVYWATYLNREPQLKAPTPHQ
T1 sequence (P47870 26-474 isoform P47870-1 limits assumed): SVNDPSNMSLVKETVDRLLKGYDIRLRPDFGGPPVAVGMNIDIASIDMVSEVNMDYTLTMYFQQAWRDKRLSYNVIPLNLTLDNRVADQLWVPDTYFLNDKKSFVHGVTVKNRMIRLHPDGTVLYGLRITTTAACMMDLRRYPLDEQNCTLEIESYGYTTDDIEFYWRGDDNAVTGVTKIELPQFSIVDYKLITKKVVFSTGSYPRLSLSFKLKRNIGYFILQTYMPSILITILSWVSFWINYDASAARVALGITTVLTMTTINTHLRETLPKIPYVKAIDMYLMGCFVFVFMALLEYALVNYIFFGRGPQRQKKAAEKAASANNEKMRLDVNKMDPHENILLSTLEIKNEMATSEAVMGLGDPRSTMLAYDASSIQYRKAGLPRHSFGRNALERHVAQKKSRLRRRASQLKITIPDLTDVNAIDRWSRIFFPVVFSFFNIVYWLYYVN
T1 sequence (P18507 40-467 isoform P18507-1 limits assumed): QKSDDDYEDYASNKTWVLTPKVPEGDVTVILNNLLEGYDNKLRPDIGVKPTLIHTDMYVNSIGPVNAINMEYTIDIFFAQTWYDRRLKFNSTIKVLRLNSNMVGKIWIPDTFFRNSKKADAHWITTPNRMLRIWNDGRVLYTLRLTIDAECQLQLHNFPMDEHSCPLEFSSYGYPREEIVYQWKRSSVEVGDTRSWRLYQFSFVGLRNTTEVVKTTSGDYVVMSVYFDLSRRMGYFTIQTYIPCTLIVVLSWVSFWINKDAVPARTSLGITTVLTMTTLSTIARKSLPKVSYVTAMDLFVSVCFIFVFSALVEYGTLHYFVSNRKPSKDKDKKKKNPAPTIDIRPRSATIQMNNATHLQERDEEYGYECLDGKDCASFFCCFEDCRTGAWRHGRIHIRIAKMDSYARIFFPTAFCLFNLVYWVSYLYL

On to `COC(=O)c1ccccc1O` [methyl salicylate], for which, in data set [1], the “solubility in water relative to cutoff values for modulation of the 3 ion channels” value is “more soluble in water than the cutoff values”. Moreover, the “time to loss-of-righting reflex” value in the data set with Sprague Dawley rats (0.1 mL IV bolus of 10% emulsion in 20% INTRALIPID, single rat) is 33 s. For the same molecule, in the data set with Sprague Dawley rats (0.1 mL IV bolus, single rat), the “general anesthesia (immobility in response to a tail clamp)” value is on record as “never resulted in general anesthesia” and the “time to return-of-righting reflex” value came to 60 s. For the same molecule, in the data set on Sprague Dawley rats (0.15 mL IV bolus, N=4 rats), the time to anesthesia was determined as 39 ± 2 s, the time to loss-of-righting is 35 ± 5 s, the “time to normal ambulation without ataxia” value was 76 ± 10 s and the “time to return from anesthesia (tail clamp response) after drug injection” value amounted to 64 ± 8 s. The “time to return of righting after drug injection” value in the data set with Sprague Dawley rats (0.15 mL IV bolus, N=4 rats) was determined as 53 ± 3 s. Also, in the data set on Sprague Dawley rats (0.2 mL IV bolus), the “time to walking and active / ambulating normally” value turned out to be 110 s; the “time to return of righting reflex” value is recorded as 58 s. In addition, in the data set on Sprague Dawley rats (setting [5]), the “time to loss of tail clamp response (general anesthesia)” value is 37 ± 13 s and the “time to loss-of-righting reflex” value is 35 ± 10 s. Also, the “time to regain tail clamp response” value in the data set on Sprague Dawley rats (0.2 mL IV bolus, the 2 surviving rats) is listed as 48 s. In the data set on Sprague Dawley rats (0.4 mL IV bolus), this molecule returned a time to unconsciousness of 20 ± 5 s. Besides, in the data set with Sprague Dawley rats (rat, in vivo), the “body weight for the next two days, relative to baseline values” was 97-98% and the “gross pathology / necropsy findings” value is reported as “no gross abnormalities”.

In the case of L-carvone, the IC50 in data set [2] is 1.4 mM. Also, in the data set on rat sciatic nerves, the IC50 was 8.7 mM. In addition, in data set [3], the “response of α1β2γ2s GABAA receptors” value is reported as “minimal response”. In addition, in the data set on Sprague Dawley rats (0.2 mL IV bolus), the “body weight over the next 2 days, deviation from baseline” value is recorded as 1.9±1.4%; the “time to walking and active / ambulating normally” value is 60 ± 13 s; the “time to return of righting reflex” value was determined as 58 ± 14 s. Moreover, in the data set on Sprague Dawley rats (setting [5]), the “time to loss of tail clamp response (general anesthesia)” value is 54 ± 11 s and the “time to loss-of-righting reflex” value was determined as 40 ± 6 s. In addition, in the data set on Sprague Dawley rats (0.2 mL IV bolus, N=4 rats), the “behavioural sign before loss-of-righting reflex” value was “transient excitement” and the “duration of transiently decreased respiratory rate” value was “approximately 10 s”. In addition, the “duration of whole-body muscle hypertonia” value in the data set on Sprague Dawley rats (0.2 mL IV bolus, half of the rats) turned out to be 15 s. In the data set with Sprague Dawley rats (0.4 mL IV bolus), the “time to cardiopulmonary arrest” value worked out at 35 ± 18 s and the time to unconsciousness was determined as 20 ± 4 s. In addition, in the data set with Sprague Dawley rats (recovered animals (sublethal doses), 48 h after drug administration), the “gross pathology / necropsy findings” value is “no gross pathology findings”. In addition, the “reduction of GABAA-induced benzodiazepine binding” value in data set [4] is listed as 36%.
